Assay results published in US4156016A, “Indole compounds and process for their preparation” (Hoffmann-La Roche Inc., priority 1977, dated 1979).

Experiments:
[1] = test system: arachidonic acid induced diarrhea; test: Arachidonic acid diarrhea prevention (mice); type: in vivo, Carworth Farm CF-1 male mice
Method: Carworth Farm CF-1 male mice weighing 18-20 grams were administered the test compound by either the oral or intraperitoneal route one hour prior to the intraperitoneal administration of 4 mg/kg of arachidonic acid (Hoffmann-La Roche Inc.). […] The diarrhea was graded on paper towels as follows: 0=solid pellet or no bowel movement; 1=slightly soft pellet with little or no wet ring formation; 2=moderately soft pellet with definite wet ring formation; 3=soft pellet with large wet ring formation; and 4=amorphous pellet with very large wet ring formation.
The calculation of the ED50 was made according to the method of Miller et al., Proc. Soc.

[2] = Gastric ulcer induction (rats); parameters: species or system male Wistar rats; conditions: rat, in vivo, po, rats; read-out: Ulcer incidence ED50
Method: The test is a modification of that described by Brodie et al., Gastroenterology, 53, pages 604-610 (1967). Male Wistar rats (Royal Hart Laboratories) were deprived of food for 18 hours prior to testing. Tap water was permitted ad libitum. Test compounds were administered orally four hours to autopsy. The rats were sacrificed under ethyl ether anesthesia, opened along the ventral midline and the stomachs removed. The stomach was divided along the lesser curvature, everted, rinsed in saline, and examined for the presence of focal hemorrhage. Ulcers were rated on an all or none basis for incidence and, in addition, each stomach is graded for severity of ulcers formed. Ulcer scores: 0=none, 1=trace, 2=mild, 3=moderate, and 4=severe. The results of the ulcer scores obtained were subjected to statistical analysis by the student `t` test.

[3] = test system: Collagen-Induced Platelet Aggregation; test: Effect of compounds in whole blood: collagen-induced platelet aggregation after incubation in whole blood; type: cell-based, human; conditions: incubation in whole blood
Method: Aliquots of citrated human blood (10 ml.) were exposed to different concentrations of the "nitrile" by mechanically shaking at room temperature for 5 minutes.

[4] = test system: Epinephrine induced aggregation; test: Inhibition of epinephrine-induced platelet aggregation (second wave) in human platelet-rich plasma; type: cell-based; conditions: incubation in human citrated platelet-rich plasma
Method: (§1) Venous blood was collected from human volunteers in siliconized 20 ml. […] Platelet rich plasma (PRP) was separated from the red blood cells by centrifugation at 180×g for 15 minutes at room temperature. Platelet poor plasma (PPP) was prepared by centrifuging PRP at 1000×g for 2 minutes.
(§2) Techniques established by Born et al., J. Physiol. […] PRP (1 ml.) was added to a siliconized cuvette containing a siliconized stirring bar and placed in a densitometer maintained at 37° C. and stirred at 1000 RPM. Various concentrations of test compounds were added in 50 μl of saline and incubated with PRP for 5 minutes. Aggregation was initiated by the addition of sufficient concentrations of ADP (Sigma Chemical Co.), epinephrine HCl (Parke, Davis & Co., Detroit, Michigan), or human mammary gland collagen (obtained from Roosevelt Hospital, N.Y.) to give about 60% of maximum aggregation response. The light transmission through PPP was used to determine maximum response. The percent inhibition of aggregation caused by the drug was calculated from the strip chart recordings at the point of maximum collagen response.

[5] = Acute toxicity in mice; conditions: mouse, in vivo
Method: CF-IS mice of both sexes weighing 17-25 grams were used. The compounds were ground in a mortar and suspended in 5% gum acacia for oral or intraperitoneal administration. Eight to ten mice were used per dose level. […] The LD50 was calculated by the method of Miller et al., Proc. Soc. Exp. Biol. Med., 57, pages 261-264 (1944).

[6] = test system: ADP induced aggregation; test: Inhibition of ADP-induced platelet aggregation (second wave) in human platelet-rich plasma; type: cell-based; conditions: incubation in human citrated platelet-rich plasma
Method: as §1, §2

[7] = test system: biosynthesis of thromboxanes; conditions: cited from earlier work
[8] = test system: Collagen-Induced Platelet Aggregation; test: Inhibition of collagen-induced platelet aggregation in human platelet-rich plasma; type: cell-based
Method: as §1, §2

[9] = test system: platelet prostaglandin formation; conditions: cited from earlier work
[10] = test system: serum PGF2α; test: Inhibition of prostaglandin formation: serum PGF2α by radioimmunoassay (rats); type: in vivo, male rats; conditions: rats; for serum PGF2α ED50: 60 min; for ED50: Rattus norvegicus, 1 h
[11] = test system: thromboxanes; conditions: submicrogram concentrations of PGE2; cited from earlier work
[12] = test system: platelet aggregation; conditions: cited from earlier work
[13] = test system: human blood-platelet aggregation; test: Inhibition of human blood-platelet aggregation (general statement)
[14] = Toxicity (general statement)
[15] = Ulcerogenicity (general statement)
[16] = test system: prostaglandin formation; test: Inhibition of prostaglandin formation (general statement)
[17] = incubation in human citrated platelet-rich plasma, read-out: IC50 collagen

Compound: CC(=O)Oc1ccccc1C(=O)O [Aspirin, reference compound]
- arachidonic acid induced diarrhea ED50 ([1]; p.o.): 1.3 mg/kg
- TD50 at 4 h [2]: 49 mg/kg
- IC50 [3]: 1500 nM
- IC50 [4]: 17000 nM
- LD50 at 120 h ([5]; po): > 1000 mg/kg
- IC50 [6]: 30000 nM
- inhibition of the biosynthesis of thromboxanes (in words) [7]: inhibits the biosynthesis of thromboxanes
- IC50 [8, 17]: 30000 nM
- inhibition of platelet prostaglandin formation (in words) [9]: known inhibitors of platelet prostaglandin formation
- serum PGF2α ED50 ([10]; i.p.): 10 mg/kg
- serum PGF2α ED50 ([10]; p.o.): 10 mg/kg

Compound: CCCCC[C@H](O)/C=C/[C@H]1[C@H](O)CC(=O)[C@@H]1C/C=C\CCCC(=O)O [PGE2]
- potentiation of biological effects of thromboxanes [11]: ≤ 700%

Compound: CCCCC[C@H](O)/C=C/[C@H]1[C@H](O)CC(=O)[C@@H]1CCCCCCC(=O)O [PGE1, (11,13E,15S)-11,15-dihydroxy-9-oxoprost-13-en-1-oic acid]
- inhibition of platelet aggregation (in words) [12]: demonstrated to inhibit platelet aggregation

Compound: CCCCCC[C@H](O)/C=C/[C@H]1[C@H](O)CC(=O)[C@@H]1CCCCCCC(=O)O [ω-homo PGE1, (11α,13E,15S)-11,15-dihydroxy-20-methyl-9-oxoprost-13-en-1-oic acid]
- inhibition of platelet aggregation (in words) [12]: demonstrated to inhibit platelet aggregation

Compound: COc1ccc2c(c1)c(CC(=O)O)c(C)n2C(=O)c1ccc(Cl)cc1 [Indomethacin, reference compound]
- ED50 ([1]; Mus musculus, po): 0.8 mg/kg
- TD50 at 4 h [2]: 3 mg/kg
- IC50 ([3]; Homo sapiens, Platelet): 400 nM
- IC50 [4]: 2000 nM
- LD50 at 120 h ([5]; ip): 193 mg/kg
- LD50 at 120 h ([5]; po): 430 mg/kg
- IC50 [6]: 100 nM
- IC50 [8, 17]: 1000 nM
- inhibition of platelet prostaglandin formation (in words) [9]: known inhibitors of platelet prostaglandin formation
- ED50 ([10]; ip): < 1 mg/kg
- ED50 ([10]; po): 1 mg/kg

Compound: NC(=O)c1[nH]c2ccc(C(O)(C(F)(F)F)C(F)(F)F)cc2c1-c1ccccc1 [amide, 3-Phenyl-5-[2,2,2-trifluoro-1-hydroxy-1-(trifluoromethyl)ethyl]indole-2-carboxamide]
- inhibition of human blood-platelet aggregation (in words) [13]: inhibit prostaglandin formation and human blood-platelet aggregation
- toxicity (in words) [14]: low in toxicity
- ulcerogenicity (in words) [15]: non-ulcerogenic
- IC50 ([8]; Homo sapiens, Platelet, Table 7, read-out: Inhibition of collagen-induced platelet aggregation, Activity IC50): 3000 nM
- inhibition of prostaglandin formation (in words) [16]: inhibit prostaglandin formation

Compound: CCCCC[C@H](O)/C=C/[C@H]1[C@H](O)CC(=O)[C@H]1CCCCCCC(=O)O [Example 8-iso-PGE1, (8β,11α,13E,15S)-11,15-dihydroxy-9-oxoprost-13-en-1-oic acid]
- inhibition of platelet aggregation (in words) [12]: demonstrated to inhibit platelet aggregation
